Experimental data reported in ChEMBL document CHEMBL1201862, “PubChem BioAssay data set” (2004).
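Grown in 96-well plates, cells were treated for 48 hours with each compound at five concentrations. Insufficient inhibition: endpoint recorded as highest concentration tested. The concentration for 50% growth inhibition is given as GI50.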 Active and inactive are the calls of the source. Rule as the data show it: active = GI50 up to about 1.1 µM and inactive = higher.

How the values were obtained:
Test in all cases: growth of human tumour cells (NCI), 48 h
ACHN = system: ACHN
CCRF-CEM = system: CCRF-CEM
COLO 205 = system: COLO 205
EKVX = system: EKVX
HOP-62 = system: HOP-62
HT-29 = system: HT-29
KM12 = system: KM12
M14 = system: M14
OVCAR-5 = system: OVCAR-5
OVCAR-8 = system: OVCAR-8
SF-295 = system: SF-295
SF-539 = system: SF-539
SK-MEL-5 = system: SK-MEL-5
SW-620 = system: SW-620
TK-10 = system: TK-10
UACC-257 = system: UACC-257
UACC-62 = system: UACC-62
UO-31 = system: UO-31
HCT-15 = system: HCT-15

Compound	GI50 (ACHN)	GI50 (CCRF-CEM)	GI50 (COLO 205)	GI50 (EKVX)	GI50 (HOP-62)	GI50 (HT-29)	GI50 (KM12)	GI50 (M14)	GI50 (OVCAR-5)	GI50 (OVCAR-8)	GI50 (SF-295)	GI50 (SF-539)	GI50 (SK-MEL-5)	GI50 (SW-620)	GI50 (TK-10)	GI50 (UACC-257)	GI50 (UACC-62)	GI50 (UO-31)	GI50 (HCT-15)
COc1ccc(-c2cc(O)c3cc(Cl)ccc3n2)cc1	> 100 µM (inactive)	> 100 µM (inactive)	> 100 µM (inactive)	> 100 µM (inactive)	> 100 µM (inactive)	> 100 µM (inactive)	91.8 µM (inactive)	> 100 µM (inactive)	> 100 µM (inactive)	> 100 µM (inactive)	> 100 µM (inactive)	> 100 µM (inactive)	> 100 µM (inactive)	> 100 µM (inactive)	> 100 µM (inactive)	> 100 µM (inactive)	> 100 µM (inactive)	> 100 µM (inactive)	
O=C(CCc1nnc2s/c(=C\c3ccccc3Cl)c(=O)n12)Nc1cc(Cl)ccc1Cl	> 100 µM (inactive)	> 100 µM (inactive)		> 100 µM (inactive)	> 100 µM (inactive)	> 100 µM (inactive)	> 100 µM (inactive)	> 100 µM (inactive)	> 100 µM (inactive)	> 100 µM (inactive)	> 100 µM (inactive)	> 100 µM (inactive)	> 100 µM (inactive)	> 100 µM (inactive)	> 100 µM (inactive)	> 100 µM (inactive)	> 100 µM (inactive)	> 100 µM (inactive)	> 100 µM
CC1CC(c2ccc(Cl)c(Cl)c2)=Nc2ccccc2S1 (configuration not stated)	> 100 µM (inactive)	41.9 µM (inactive)	> 100 µM (inactive)	> 100 µM (inactive)	> 100 µM (inactive)	> 100 µM (inactive)	> 100 µM (inactive)	> 100 µM (inactive)	> 100 µM (inactive)	> 100 µM (inactive)	> 100 µM (inactive)	> 100 µM (inactive)	> 100 µM (inactive)	> 100 µM (inactive)	> 100 µM (inactive)	> 100 µM (inactive)	> 100 µM (inactive)	> 100 µM (inactive)	> 100 µM
O=[N+]([O-])c1nccn1COCCF	> 100 µM (inactive)	> 100 µM (inactive)	> 100 µM (inactive)	> 100 µM (inactive)	> 100 µM (inactive)	> 100 µM (inactive)	> 100 µM (inactive)	> 100 µM (inactive)	> 100 µM (inactive)	> 100 µM (inactive)	> 100 µM (inactive)	> 100 µM (inactive)	> 100 µM (inactive)	> 100 µM (inactive)	> 100 µM (inactive)	> 100 µM (inactive)	> 100 µM (inactive)	> 100 µM (inactive)	> 100 µM
COc1ccc2[nH]c3c(c2c1)[C@H]1CCC(C(C)(C)C)C[C@H]1[C@H]1C(=O)N(c2ccccc2)C(=O)[C@@H]31 (some centres not stated)	4.17 µM (inactive)	18.9 µM (inactive)	11.4 µM (inactive)	32.7 µM (inactive)	11.1 µM (inactive)	> 100 µM (inactive)	> 43.4 µM (inactive)	8.22 µM (inactive)	> 60.1 µM (inactive)	6.84 µM (inactive)	7.18 µM (inactive)	5.4 µM (inactive)	> 47.6 µM (inactive)	20.2 µM (inactive)	22.6 µM (inactive)	24.2 µM (inactive)	31 µM (inactive)	24 µM (inactive)	> 100 µM
O=C1C(Cl)=C(Cl)C(=O)N1C1C2CC3CC(C2)CC1C3 (configuration not stated)	> 100 µM (inactive)	19.3 µM (inactive)	32.8 µM (inactive)	> 100 µM (inactive)	> 100 µM (inactive)	> 100 µM (inactive)		> 100 µM (inactive)	> 100 µM (inactive)	> 76.4 µM (inactive)	> 100 µM (inactive)	> 100 µM (inactive)	> 100 µM (inactive)	47 µM (inactive)	> 100 µM (inactive)	> 100 µM (inactive)	> 100 µM (inactive)	> 100 µM (inactive)	> 100 µM
O=C1OC(c2ccccc2)=N/C1=C/NC(Cc1c[nH]c2ccccc12)C(=O)O (configuration not stated)	> 100 µM (inactive)	> 100 µM (inactive)	> 100 µM (inactive)	> 100 µM (inactive)	> 100 µM (inactive)	> 100 µM (inactive)		> 100 µM (inactive)	> 100 µM (inactive)	> 100 µM (inactive)	> 100 µM (inactive)	> 100 µM (inactive)	> 100 µM (inactive)	> 100 µM (inactive)	> 100 µM (inactive)	> 100 µM (inactive)	> 100 µM (inactive)	> 100 µM (inactive)	> 100 µM
Cc1ccc(C2C(Cl)C(=O)N2NC(=O)c2ccc(N)cc2)cc1 (configuration not stated)	31.9 µM (inactive)	7.73 µM (inactive)	22.6 µM (inactive)	28.8 µM (inactive)	22.4 µM (inactive)	21.2 µM (inactive)	25.5 µM (inactive)	18.7 µM (inactive)	24.3 µM (inactive)	14.4 µM (inactive)	20.3 µM (inactive)	23.9 µM (inactive)	15.2 µM (inactive)	21 µM (inactive)	43.6 µM (inactive)	24.3 µM (inactive)	15.8 µM (inactive)	30 µM (inactive)	15.7 µM
CC1=NOC(=O)/C1=C/c1ccc([N+](=O)[O-])cc1	> 100 µM (inactive)	> 100 µM (inactive)	> 100 µM (inactive)	> 100 µM (inactive)	> 100 µM (inactive)	> 100 µM (inactive)	> 100 µM (inactive)	> 100 µM (inactive)	> 100 µM (inactive)	> 100 µM (inactive)	> 100 µM (inactive)	> 100 µM (inactive)	> 100 µM (inactive)	59 µM (inactive)	> 100 µM (inactive)	> 100 µM (inactive)	> 100 µM (inactive)	> 100 µM (inactive)	> 100 µM
CC(C)(C)/N=C/N1C=Cc2nc3ccccc3cc2C1	> 100 µM (inactive)	> 100 µM (inactive)	36.9 µM (inactive)	> 100 µM (inactive)	> 100 µM (inactive)	> 100 µM (inactive)	> 100 µM (inactive)	> 100 µM (inactive)	> 100 µM (inactive)	> 100 µM (inactive)	> 100 µM (inactive)	> 100 µM (inactive)	> 100 µM (inactive)	19.5 µM (inactive)	> 100 µM (inactive)	> 100 µM (inactive)	> 100 µM (inactive)	> 100 µM (inactive)	57.1 µM
CC1=C(O)C(=O)c2cn(C)cc2C1=O	> 100 µM (inactive)	> 100 µM (inactive)	> 100 µM (inactive)	> 100 µM (inactive)	> 100 µM (inactive)	> 100 µM (inactive)	> 100 µM (inactive)	> 100 µM (inactive)	> 100 µM (inactive)	> 100 µM (inactive)	> 100 µM (inactive)	> 100 µM (inactive)	> 100 µM (inactive)	> 100 µM (inactive)	> 100 µM (inactive)	> 100 µM (inactive)	> 100 µM (inactive)	> 100 µM (inactive)	> 100 µM
O=c1ccc(=O)c2c(=O)c3ccccc3c(=O)c1=2	60.3 µM (inactive)	33 µM (inactive)	99.3 µM (inactive)	28.7 µM (inactive)	36.6 µM (inactive)		37.1 µM (inactive)	46 µM (inactive)	> 100 µM (inactive)	27.5 µM (inactive)	34.4 µM (inactive)	26 µM (inactive)	15.7 µM (inactive)	32.7 µM (inactive)	> 100 µM (inactive)	30.8 µM (inactive)	36.7 µM (inactive)	57.8 µM (inactive)	46.2 µM
COc1ccc(/C(Cl)=C(\C=O)c2ccc(Cl)cc2)cc1	3.27 µM (inactive)	2.94 µM (inactive)		5.07 µM (inactive)	19.4 µM (inactive)	4.84 µM (inactive)		14.1 µM (inactive)	57.5 µM (inactive)	4.41 µM (inactive)	4.4 µM (inactive)	9.16 µM (inactive)	11.2 µM (inactive)	4.12 µM (inactive)	6.15 µM (inactive)	11 µM (inactive)	10.1 µM (inactive)	4.71 µM (inactive)	3.41 µM
CNc1ccc2ncccc2c1[N+](=O)[O-]	> 100 µM (inactive)	> 100 µM (inactive)		> 100 µM (inactive)	> 100 µM (inactive)	> 100 µM (inactive)	> 100 µM (inactive)	> 100 µM (inactive)	> 100 µM (inactive)	> 100 µM (inactive)	> 100 µM (inactive)	> 100 µM (inactive)	> 100 µM (inactive)	> 100 µM (inactive)	> 100 µM (inactive)	> 100 µM (inactive)	> 100 µM (inactive)	> 100 µM (inactive)	> 100 µM
Nc1ccn(CC(CO)CC(c2ccccc2)P(=O)(O)O)c(=O)n1 (configuration not stated)	> 100 µM (inactive)	> 100 µM (inactive)	> 100 µM (inactive)	> 100 µM (inactive)	> 100 µM (inactive)	> 100 µM (inactive)	> 100 µM (inactive)	> 100 µM (inactive)	> 100 µM (inactive)	> 100 µM (inactive)	> 100 µM (inactive)	> 100 µM (inactive)	> 100 µM (inactive)	> 100 µM (inactive)	> 100 µM (inactive)	> 100 µM (inactive)	> 100 µM (inactive)	> 100 µM (inactive)	> 100 µM
